Source: patent US20110217300A1, “Quinazolinone Compounds and Methods of Use Thereof” (priority 2007, published 2011)
Like-named read-outs stand apart in the source and are kept apart here.

Columns and labels:
HsEg5 = target: T1, HsEg5 (Homo sapiens, UniProt P52732); experiment: Fluorescence detection of HsEg5 ATPase activity (ADP Quest, automated); format: biochemical
T1 sequence (P52732 18-359 limits assumed): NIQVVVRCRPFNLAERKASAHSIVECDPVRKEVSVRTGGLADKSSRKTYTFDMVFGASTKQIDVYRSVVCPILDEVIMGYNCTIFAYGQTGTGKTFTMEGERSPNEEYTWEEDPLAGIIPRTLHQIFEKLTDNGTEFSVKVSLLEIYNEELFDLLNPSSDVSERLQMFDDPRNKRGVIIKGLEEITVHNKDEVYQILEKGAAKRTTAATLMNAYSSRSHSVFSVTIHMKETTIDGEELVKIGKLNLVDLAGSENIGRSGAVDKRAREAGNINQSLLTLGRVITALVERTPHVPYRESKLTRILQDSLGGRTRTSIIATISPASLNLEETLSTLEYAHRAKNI
Protocol: Purified HsEg5 motor fragment was activated by mixture with preformed MT polymer (Cytoskeleton, Denver, Colo.) at room temperature for 20 minutes. MT activated ATPase activity was measured using ADP Quest (DiscoverX, Fremont, Calif.) in which a coupled-enzyme assay can translate accumulation of ADP into detectable resorufin signal (FIG. 1A). Fluorescence was measured at λEx=535 nm and λEm=590 nm on a Wallac Victor 2 plate reader (Perkin-Elmer Life Sciences, Boston, Mass.). Reagent A and B from ADP Quest kit were aliquoted and frozen in −20° C. before use. A standard curve was determined using the provided ADP reagent in the reaction buffer that consisted of 50 mM Pipes (pH7.0), 5.0 mM MgCl2, 20 μM paclitaxel and […]. The same buffer was used for Km determination with HsEg5 concentration of 10 nM.
For inhibitor screening, 4 μL of compounds were incubated with 10 μL of MT-activated HsEg5 such that the final concentrations for compound range from 100 μM to 5 nM (1 to 3 serial dilutions, final concentration) and final concentration for HsEg5 is 10 nM. The mixture was incubated at room temperature for 10 minutes with mild shaking. The screening assay contained 0.3% DMSO in all reaction wells. We used wells containing only DMSO as negative controls and wells without ATP as background. Addition of 6 μL ATP (final concentration of 20 μM) initiated the ATP hydrolysis reaction. The 20 μL-reaction was allowed to proceed at room temperature for 10 minutes before addition of 10 μL of reagent A and 20 μL of reagent B. After 20-minute development at room temperature, the fluorescence was measured and data analysis was performed using GraphPad Prism version 3.0 (GraphPad Software, San Diego, Calif.)
For the purpose of high-throughput screening, we automated the fluorescence assay using a Sciclone ALH3000 (Caliper Life Sciences, Hopkinton, Mass.) and Multidrop 384 (Thermo Electron Corp, Waltham, Mass.). First, compound dilution plates for screening (at 10 μM or 1 μM) and ICso determination (10 data points from 100 μM to 5 nM) were made in Corning polypropylene V-bottom 96-well plates. In both cases, the 1st and 7th column contained background (No ATP addition) and negative control (DMSO only). For screening compounds at 10 μM or 1 μM, […] of each compound at 50 μM or 5 μM were used in a 20 μL assay reaction. For IC50 determination, the mother compound plate contained 24 μL of tested compound at stock concentration of 30 mM. 6 μL of each test compound in 30 mM was added to each well in the column 2 and followed by 1:3 serial dilutions in DMSO with the Sciclone ALH3000. 234 μL of assay buffer was then added using a Multidrop 384. Then 4 μL of diluted compounds was used in 20 μL-reaction. The final concentration was a 1:300 dilution of the original stock. Second, a reagent source plate was prepared with three rows designated to MT-activated HsEg5, Reagent A and Reagent B respectively. MTs were diluted with assay buffer and polymerized at room temperature for 10 minutes. Just before use, HsEg5 protein was thawed on ice and activated by addition of MT polymers at room temperature for 20 minutes. HsEg5/MT was then added to Row A of the reagent source plate. The final assay concentration was 10 nM HsEg5 and 500 nM MTs. Reagent A and B were stored at −20° C. and thawed at room temperature followed by transferring to rows B & C of the reagent source plate. Third, ATP substrate plate was prepared by transferring 80 μM ATP solution to each well of a V-shape 96-well plate except the wells in the first row where assay buffer was added instead to have no-ATP blanks. The final concentration for ATP in the assay was 20 μM.
The assay was programmed on Sciclone ALH3000 with the following procedures: 1) Addition of 4 μL compounds to the assay plate, followed by addition of 10 μL of MT-activated HsEg5. […]

NCI-H460 = experiment: MTS cell viability assay; format: cell-based, human; conditions: Homo sapiens, NCI-H460, 72 h
Protocol: Cell viability was determined by measuring the activity of dehydrogenase enzymes in metabolically active cells using a tetrazolium compound, MTS. The assay was performed as described in Promega Technical Bulletin No. 169 (CellTiter 96 Aqueous Non-Radioactive Cell Proliferation Assay). Two human cancer cell lines were assayed (see, Table 1). Cells were maintained at 37° C. and 5% CO2 in DMEM media (4.5 g/L glucose) supplemented with 10% heat-inactivated FBS, 10 mM L-glutamine, and 10 mM Hepes pH 7.5. Briefly, cells were seeded in 96-well plates as set forth in Table 1 and incubated for 16-24 hours. Candidate compounds were serially diluted in DMSO, further diluted in cell culture media, and then added to cells (final DMSO concentration of 0.33%). Cells were incubated in the presence of candidate compound for 72 hours. MTS stock solution (MTS 2 gm/L, PMS […] in PBS) was added to the cells (final concentration MTS […] and PMS 7.67 mg/L) and incubated for 4 hours. SDS was added to a final concentration of 1.4% and absorbance at 490 nm was measured within two hours using a plate reader. […] GI50 values were given in Table 2 for the compounds listed. The Compound Numbers in Table 2 correspond to the numbers listed parenthetically in the Example titles. Where multiple measurements were made by different technicians, both values are given.
Cell viability was determined for N-(3-amino-propyl)-3-chloro-N—[(R)-1-(7-chloro-4-oxo-3-phenylamino-3,4-dihydro-quinazolin-2-yl)-but-3-ynyl]-2-fluoro-benzamide (compound I of Table 2). The cell viability assay of Example 105 was used. GI50 was determined using a variety of cell lines. Cells were plated at 100-5000 cells per well. At least 2 replicates were performed. Where multiple measurements were made by different technicians, both values are given.

A549 = experiment: MTS cell viability assay; format: cell-based; conditions: Homo sapiens, A549 non small cell lung, 72 hours, read-out: MTS NCI A549 GI50
Protocol: Two human cancer cell lines were assayed (see, Table 1). Cells were maintained at 37° C. and 5% CO2 in DMEM media (4.5 g/L glucose) supplemented with 10% heat-inactivated FBS, 10 mM L-glutamine, and 10 mM Hepes pH 7.5. Briefly, cells were seeded in 96-well plates as set forth in Table 1 and incubated for 16-24 hours. Candidate compounds were serially diluted in DMSO, further diluted in cell culture media, and then added to cells (final DMSO concentration of 0.33%). Cells were incubated in the presence of candidate compound for 72 hours. […] The Compound Numbers in Table 2 correspond to the numbers listed parenthetically in the Example titles.

[1] = read-out: MTS NCI H460 GI50, NCI-H460 non small cell lung, 72 hours

Compound: CCC(c1nc2cc(Cl)ccc2c(=O)n1Nc1ccccc1)N(CCCN)C(=O)c1ccc(F)c(C)c1 (stereo not drawn) [Compound 18, N-(3-Aminopropyl)-N-[1-(3-anilino-7-chloro-4-oxo-3,4-dihydroquinazolin-2-yl)propyl]-4-fluoro-3-methylbenzamide]
- IC50 (HsEg5): 1250 nM
- GI50 (NCI-H460; [1]): 2500 nM
- GI50 (A549; A549, 72 h): 3920 nM

Compound: CC(C)C(c1nc2cc(Cl)ccc2c(=O)n1Nc1ccccc1)N(CCCN)C(=O)c1cccc(Br)c1 (stereo not drawn) [Compound 44, N-(3-Aminopropyl)-N-[1-(3-anilino-7-chloro-4-oxo-3,4-dihydroquinazolin-2-yl)-2-methylpropyl]-3-bromobenzamide]
- IC50 (HsEg5): 1850 nM
- GI50 (NCI-H460; [1]): 13400 nM
- GI50 (A549; A549, 72 h): 13800 nM

Compound: CC(C)CC(c1nc2cc(Cl)ccc2c(=O)n1Nc1ccccc1)N(CCCN)C(=O)c1ccc(F)c(F)c1 (stereo not drawn) [Compound 35, N-(3-Aminopropyl)-N-[1-(3-anilino-7-chloro-4-oxo-3,4-dihydroquinazolin-2-yl)-3-methylbutyl]-3,4-difluorobenzamide]
- IC50 (HsEg5): 1960 nM
- GI50 (NCI-H460; read-out: MTS NCI H460 GI50): 6150 nM
- GI50 (A549): 4520 nM

Compound: CCC(c1nc2cc(Cl)ccc2c(=O)n1Nc1ccccc1)N(CCCN)C(=O)c1ccc(Br)cc1 (stereo not drawn) [Compound 2, N-(3-Aminopropyl)-N-[1-(3-anilino-7-chloro-4-oxo-3,4-dihydroquinazolin-2-yl)propyl]-4-bromobenzamide]
- IC50 (HsEg5): 645 nM
- GI50 (NCI-H460; read-out: MTS NCI H460 GI50): 1750 nM
- GI50 (A549): 2370 nM

Compound: CC(C)CC(c1nc2cc(Cl)ccc2c(=O)n1Nc1ccccc1)N(CCCN)C(=O)c1ccc(F)c(Cl)c1 (stereo not drawn) [Compound 37, N-(3-Aminopropyl)-N-[1-(3-anilino-7-chloro-4-oxo-3,4-dihydroquinazolin-2-yl)-3-methylbutyl]-3-chloro-4-fluorobenzamide]
- IC50 (HsEg5): 1660 nM
- GI50 (NCI-H460; [1]): 4490 nM
- GI50 (A549; A549, 72 h): 5020 nM

Compound: CC(C)CC(c1nc2cc(Cl)ccc2c(=O)n1Nc1ccccc1)N(CCCN)C(=O)c1cc(Cl)cc(Cl)c1 (stereo not drawn) [Compound 36, N-(3-Aminopropyl)-N-[1-(3-anilino-7-chloro-4-oxo-3,4-dihydroquinazolin-2-yl)-3-methylbutyl]-3,5-dichlorobenzamide]
- IC50 (HsEg5): 1860 nM
- GI50 (NCI-H460; read-out: MTS NCI H460 GI50): 3770 nM
- GI50 (A549): 4370 nM

Compound: CCC(c1nc2cc(Cl)ccc2c(=O)n1Nc1ccccc1)N(CCCN)C(=O)c1ccc(C)c(F)c1F (stereo not drawn) [Compound 21, N-(3-Aminopropyl)-N-[1-(3-anilino-7-chloro-4-oxo-3,4-dihydroquinazolin-2-yl)propyl]-2,3-difluoro-4-methylbenzamide]
- IC50 (HsEg5): 1250 nM
- GI50 (NCI-H460; [1]): 1080 nM
- GI50 (A549; A549, 72 h): 1930 nM

Compound: NCCCN(C(=O)c1ccc(F)c(F)c1F)C(Cc1ccc(O)cc1)c1nc2cc(Cl)ccc2c(=O)n1Nc1ccccc1 (stereo not drawn) [Compound 55, N-(3-Aminopropyl)-N-[1-(3-anilino-7-chloro-4-oxo-3,4-dihydroquinazolin-2-yl)-2-(4-hydroxyphenyl)ethyl]-2,3,4-trifluorobenzamide]
- IC50 (HsEg5): 4160 nM
- GI50 (NCI-H460; [1]): 16100 nM
- GI50 (A549; A549, 72 h): 33700 nM

Compound: CCC(c1nc2cc(Cl)ccc2c(=O)n1Nc1ccccc1)N(CCCN)C(=O)c1cccc(Cl)c1Cl (stereo not drawn) [Compound 12, N-(3-Aminopropyl)-N-[1-(3-anilino-7-chloro-4-oxo-3,4-dihydroquinazolin-2-yl)propyl]-2,3-dichlorobenzamide]
- IC50 (HsEg5): 818 nM
- GI50 (NCI-H460; read-out: MTS NCI H460 GI50): 2110 nM
- GI50 (A549): 3370 nM

Compound: NCCCN(C(=O)c1ccc(F)c(Cl)c1)C(Cc1cccs1)c1nc2cc(Cl)ccc2c(=O)n1Nc1ccccc1 (stereo not drawn) [Compound 53, N-(3-Aminopropyl)-N-[1-(3-anilino-7-chloro-4-oxo-3,4-dihydroquinazolin-2-yl)-2-(2-thienyl)ethyl]-3-chloro-4-fluorobenzamide]
- IC50 (HsEg5): 2620 nM
- GI50 (NCI-H460; [1]): 4440 nM
- GI50 (A549; A549, 72 h): 5260 nM

Compound: CCC(c1nc2ccc(C)cc2c(=O)n1Nc1ccccc1)N(CCCN)C(=O)c1ccc(C)cc1 (stereo not drawn) [Compound 28, N-(3-Aminopropyl)-N-[1-(3-anilino-6-methyl-4-oxo-3,4-dihydroquinazolin-2-yl)propyl]-4-methylbenzamide]
- IC50 (HsEg5): 1590 nM
- GI50 (NCI-H460; read-out: MTS NCI H460 GI50): 1350 nM
- GI50 (A549): 2500 nM

Compound: NCCCN(C(=O)c1cccc(F)c1F)C(Cc1cccs1)c1nc2cc(Cl)ccc2c(=O)n1Nc1ccccc1 (stereo not drawn) [Compound 50, N-(3-Aminopropyl)-N-[1-(3-anilino-7-chloro-4-oxo-3,4-dihydroquinazolin-2-yl)-2-(2-thienyl)ethyl]-2,3-difluorobenzamide]
- IC50 (HsEg5): 1180 nM
- GI50 (NCI-H460; [1]): 3120 nM
- GI50 (A549; A549, 72 h): 3770 nM

Compound: CC[C@H](c1nc2cc(Cl)ccc2c(=O)n1Nc1ccccc1)N(CCCN)S(=O)(=O)c1ccsc1 [Compound 34, N-(3-Aminopropyl)-N-[(1R)-1-(3-anilino-7-chloro-4-oxo-3,4-dihydroquinazolin-2-yl)propyl]thiophene-3-sulfonamide]
- IC50 (HsEg5): 1650 nM
- GI50 (NCI-H460; read-out: MTS NCI H460 GI50): 5470 nM
- GI50 (A549): 6360 nM
